The record followed here is patent US11034698B2, “Pyrazolo[ 1,5a]pyrimidine derivatives as IRAK4 modulators” (priority 2017, dated 2021).

Structures can show the parent of a compound that is named as a salt.

For the first experiment, the target named is human IRAK4 (Homo sapiens (Human), UniProt Q9NWZ3). The experiment in a line: IRAK4 kinase inhibition, Transcreener fluorescence polarization (ADP). Format: biochemical.
human IRAK4, sequence (Q9NWZ3 whole entry): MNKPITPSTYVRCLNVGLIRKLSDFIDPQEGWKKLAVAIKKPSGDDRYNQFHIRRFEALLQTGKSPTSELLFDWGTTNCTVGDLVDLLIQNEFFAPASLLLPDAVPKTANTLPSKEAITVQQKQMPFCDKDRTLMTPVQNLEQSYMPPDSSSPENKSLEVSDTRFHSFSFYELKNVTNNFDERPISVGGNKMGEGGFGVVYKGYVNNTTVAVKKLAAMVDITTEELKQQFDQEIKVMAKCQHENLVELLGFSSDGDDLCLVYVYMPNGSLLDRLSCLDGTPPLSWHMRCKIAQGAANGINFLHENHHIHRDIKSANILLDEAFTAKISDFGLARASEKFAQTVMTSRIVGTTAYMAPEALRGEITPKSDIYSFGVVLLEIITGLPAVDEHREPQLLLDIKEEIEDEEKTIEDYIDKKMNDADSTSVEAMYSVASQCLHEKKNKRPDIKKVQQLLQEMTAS
Conditions: not given
The method, boiled down: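 The enzyme was full-length human IRAK4 with an N-terminal His6 tag, expressed in insect cells. Kinase activity was read as ADP product by Transcreener fluorescence polarization.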
On the technique in general: Fluorescence polarisation rises when a labelled molecule tumbles more slowly, as on binding a larger partner.
With `CC[C@H]1CC(=O)NN1C1CCN(c2cc3c(cc2NC(=O)c2cnn4cccnc24)CC(C)(C)O3)CC1` (single isomer, unassigned) [Example 18], the affinity corresponds to a Ki of 6.7 nM.

With `CC(C)Oc1cc2c(cc1NC(=O)c1cnn3cccnc13)CN([C@@H]1CCOC1)C2=O` (single isomer, unassigned) [Example 69], the Ki (in general, a measure of affinity in units of concentration, obtained from inhibition or displacement) was found to be 1.8 nM.

`CC1(C)Cc2cc(NC(=O)c3cnn4cccnc34)c(O[C@@H]3CN(CC(N)=O)C[C@H]3N)cc2O1` (single isomer, unassigned) [Example 20] showed a Ki of 17 nM.

With `C[C@]1(CCC#N)COc2cc(N3CCOCC3)c(NC(=O)c3cnn4cccnc34)cc2C1` (single isomer, unassigned) [Example 59], affinity was put at a Ki of 30 nM.

`CC1(C)Cc2cc(NC(=O)c3cnn4cccnc34)c(OC[C@@H]3C[C@H]4NCCO[C@@H]4C3)cc2O1` (single isomer, unassigned) [Example 32] displayed a Ki of 720 nM.

As to `C[C@@H]1C[C@@H]2CN(c3cc4c(cc3NC(=O)c3cnn5cccnc35)CN(C[C@@H](F)C(C)(C)O)C4=O)CCN2C1` (single isomer, unassigned) [Example 111], the Ki was found to be 9.9 nM.

`CC(C)(O)[C@H](F)CN1Cc2cc(NC(=O)c3cnn4cccnc34)c(OC[C@H]3CNC(=O)C3)cc2C1=O` (single isomer, unassigned) [Example 72] had a Ki of 1 nM.

The compound `CC(C)(O)[C@H](F)CN1Cc2cc(NC(=O)c3cnn4cccnc34)c(O[C@@H]3CCNC3)cc2C1=O` (single isomer, unassigned) [Example 63] displayed a Ki of 5.3 nM.

Compound `CN1C[C@@H](COc2cc3c(cc2NC(=O)c2cnn4cccnc24)CC(C)(C)O3)CC1=O` (single isomer, unassigned) [Example 25] had an inhibition constant Ki of 90 nM.

Compound `CC(C)(O)[C@H](F)CN1Cc2cc(NC(=O)c3cnn4cccnc34)c(O[C@@H]3CC[C@H](O)C3)cc2C1=O` (single isomer, unassigned) [Example 67] showed a Ki of 1.1 nM.

Still in this experiment, the particulars now being: recombinant full-length His6-IRAK4 1.25 nM; 125 uM ATP; 125 uM peptide; 90 min; ATP Km 642 uM; read-out: IRAK4 Ki.
`CO[C@@H]1C[C@@H]2CN(c3cc4c(cc3NC(=O)c3cnn5cccnc35)CN(C[C@@H](F)C(C)(C)O)C4=O)CCN2C1` [Example 107, N-(2-((R)-2-Fluoro-3-hydroxy-3-methylbutyl)-6-((7R,8aR)-7-methoxyhexahydropyrrolo[1,2-a]pyrazin-2(1H)-yl)-1-oxoisoindolin-5-yl)pyrazolo[1,5-a]pyrimidine-3-carboxamide]: the Ki was found to be 6.5 nM.

On to `Cc1nocc1CN1CCN(c2cc3c(cc2NC(=O)c2cnn4cccnc24)CC(C)(C)O3)CC1` [Example 14, N-(2,2-Dimethyl-6-(4-((3-methylisoxazol-4-yl)methyl)piperazin-1-yl)-2,3-dihydrobenzofuran-5-yl)pyrazolo[1,5-a]pyrimidine-3-carboxamide hydrochloride], for which the Ki stood at 5.2 nM.

As to `CC1(C)Cc2cc(NC(=O)c3cnn4cccnc34)c(N3CCN(CCN)CC3)cc2O1` [Example 1, N-[6-[4-(2-aminoethyl)piperazin-1-yl]-2,2-dimethyl-3H-benzofuran-5-yl]pyrazolo[1,5-a]pyrimidine-3-carboxamide], the Ki was 7.4 nM.

For `CC(C)Oc1cc2c(cc1NC(=O)c1cnn3cccnc13)CN(C[C@@H](F)C(C)(C)O)C2=O` [Example 78, N-[2-[(2R)-2-Fluoro-3-hydroxy-3-methyl-butyl]-6-isopropoxy-1-oxo-isoindolin-5-yl]pyrazolo[1,5-a]pyrimidine-3-carboxamide], the inhibitory constant (Ki) turned out to be 0.17 nM.

Regarding `Cc1cnc2c(C(=O)Nc3cc4c(cc3OC(C)C)C(=O)N(C[C@@H](F)C(C)(C)O)C4)cnn2c1` [Example 81, (R)-N-(2-(2-Fluoro-3-hydroxy-3-methylbutyl)-6-isopropoxy-1-oxoisoindolin-5-yl)-6-methylpyrazolo[1,5-a]pyrimidine-3-carboxamide], the Ki is 0.42 nM.

With `CC1(C)Cc2cc(NC(=O)c3cnn4cccnc34)c(N3CCN(C4COC4)CC3)cc2O1` [Example 13, N-(2,2-Dimethyl-6-(4-(oxetan-3-yl)piperazin-1-yl)-2,3-dihydrobenzofuran-5-yl)pyrazolo[1,5-a]pyrimidine-3-carboxamide], the inhibition constant (Ki) was found to be 8.1 nM.

For `CC(C)(O)[C@H](F)CN1Cc2cc(NC(=O)c3cnn4cccnc34)c(C#N)cc2C1=O` [Example 98, (R)—N-(6-Cyano-2-(2-fluoro-3-hydroxy-3-methylbutyl)-1-oxoisoindolin-5-yl)pyrazolo[1,5-a]pyrimidine-3-carboxamide], the Ki was determined as 8.5 nM.

As for `CC(C)(O)[C@H](F)CN1Cc2cc(NC(=O)c3cnn4cccnc34)c(N3CCN(CCn4ccnc4)CC3)cc2C1=O` [Example 106, (R)-N-(6-(4-(2-(1H-Imidazol-1-yl)ethyl)piperazin-1-yl)-2-(2-fluoro-3-hydroxy-3-methylbutyl)-1-oxoisoindolin-5-yl)pyrazolo[1,5-a]pyrimidine-3-carboxamide], the Ki was found to be 2.1 nM.

Consider `CC(C)(O)[C@H](F)CN1Cc2cc(NC(=O)c3cnn4cccnc34)c(N3CCN4CCC[C@@H]4C3)cc2C1=O` [Example 100, N-(2-((R)-2-Fluoro-3-hydroxy-3-methylbutyl)-6-((R)-hexahydropyrrolo[1,2-a]pyrazin-2(1H)-yl)-1-oxoisoindolin-5-yl)pyrazolo[1,5-a]pyrimidine-3-carboxamide], for which the Ki came to 1.8 nM.

As for `COc1cc2c(cc1NC(=O)c1cnn3ccc(N4CCC[C@@H](N)C4)nc13)CC(C)(C)O2` [Example 39, (R)-5-(3-Aminopiperidin-1-yl)-N-(6-methoxy-2,2-dimethyl-2,3-dihydrobenzofuran-5-yl)pyrazolo[1,5-a]pyrimidine-3-carboxamide], the inhibition constant (Ki) was 4.1 nM.

Turning to `CC(C)(O)[C@H](F)CN1Cc2cc(NC(=O)c3cnn4ccc(Cl)nc34)c(N3CCOCC3)cc2C1=O` [Example 102, (R)-5-Chloro-N-(2-(2-fluoro-3-hydroxy-3-methylbutyl)-6-morpholino-1-oxoisoindolin-5-yl)pyrazolo[1,5-a]pyrimidine-3-carboxamide], the Ki was found to be 6.5 nM.

In the case of `CCc1nocc1CN1CCN(c2cc3c(cc2NC(=O)c2cnn4cccnc24)CN(C[C@@H](F)C(C)(C)O)C3=O)CC1` [Example 104, (R)-N-(6-(4-((3-Ethylisoxazol-4-yl)methyl)piperazin-1-yl)-2-(2-fluoro-3-hydroxy-3-methylbutyl)-1-oxoisoindolin-5-yl)pyrazolo[1,5-a]pyrimidine-3-carboxamide], the Ki stood at 5 nM.

On to `COc1cc2c(cc1NC(=O)c1cnn3ccc(NCCN)nc13)CC(C)(C)O2` [Example 43, 5-((2-Aminoethyl)amino)-N-(6-methoxy-2,2-dimethyl-2,3-dihydrobenzofuran-5-yl)pyrazolo[1,5-a]pyrimidine-3-carboxamide], for which the inhibition constant (Ki) stood at 3.2 nM.

Take `COc1cc2c(cc1NC(=O)c1cnn3ccc(N4C[C@@H](N)CC(F)(F)C4)nc13)CC(C)(C)O2` [Example 36, (S)-5-(5-Amino-3,3-difluoropiperidin-1-yl)-N-(6-methoxy-2,2-dimethyl-2,3-dihydrobenzofuran-5-yl)pyrazolo[1,5-a]pyrimidine-3-carboxamide]: the inhibitory constant (Ki) was determined as 14 nM.

On to `CC(C)(O)[C@H](F)CN1Cc2cc(NC(=O)c3cnn4cccnc34)c(OCC(F)(F)F)cc2C1=O` [Example 135, (R)—N-(2-(2-Fluoro-3-hydroxy-3-methylbutyl)-1-oxo-6-(2,2,2-trifluoroethoxy)isoindolin-5-yl)pyrazolo[1,5-a]pyrimidine-3-carboxamide], for which the Ki was 0.63 nM.

Consider `COc1cc2c(cc1NC(=O)c1cnn3ccc(N[C@@H]4CCCNC4)nc13)CC(C)(C)O2` [Example 40, (R)-N-(6-Methoxy-2,2-dimethyl-2,3-dihydrobenzofuran-5-yl)-5-(piperidin-3-ylamino)pyrazolo[1,5-a]pyrimidine-3-carboxamide], for which the Ki was found to be 0.87 nM.

Turning to `Cn1ccc2cc(NC(=O)c3cnn4cccnc34)c(N3CCOCC3)cc2c1=O` [Example 152, N-(2-Methyl-7-morpholino-1-oxo-1,2-dihydroisoquinolin-6-yl)pyrazolo[1,5-a]pyrimidine-3-carboxamide], the inhibition constant (Ki) was found to be 210 nM.

With `COc1cc2c(cc1NC(=O)c1cnn3ccc(C4CCNC4=O)nc13)CC(C)(C)O2` (stereo not drawn) [Example 35, N-(6-Methoxy-2,2-dimethyl-2,3-dihydrobenzofuran-5-yl)-5-(2-oxopyrrolidin-3-yl)pyrazolo[1,5-a]pyrimidine-3-carboxamide], the inhibition constant Ki is 100 nM.

Regarding `COc1cc2c(cc1NC(=O)c1cnn3ccc(N(C)C)nc13)CC(C)(C)O2` [Example 44, 5-(Dimethylamino)-N-(6-methoxy-2,2-dimethyl-2,3-dihydrobenzofuran-5-yl)pyrazolo[1,5-a]pyrimidine-3-carboxamide], the Ki worked out at 220 nM.

Take `COc1cc2c(cc1NC(=O)c1cnn3ccc(N)nc13)CC(C)(C)O2` [Example 41, 5-amino-N-(6-Methoxy-2,2-dimethyl-2,3-dihydrobenzofuran-5-yl)pyrazolo[1,5-a]pyrimidine-3-carboxamide]: the Ki was determined as 4.6 nM.

As for `CC(C)(C)Oc1cc2c(cc1NC(=O)c1cnn3cccnc13)CN(C[C@@H](F)C(C)(C)O)C2=O` [Example 90, (R)-N-(6-(tert-Butoxy)-2-(2-fluoro-3-hydroxy-3-methylbutyl)-1-oxoisoindolin-5-yl)pyrazolo[1,5-a]pyrimidine-3-carboxamide], the inhibitory constant (Ki) is 0.61 nM.

In the case of `CC1(C)Cc2cc(NC(=O)c3cnn4cccnc34)c(N3CCN(Cc4[nH]cnc4Cl)CC3)cc2O1` [Example 10, N-(6-(4-((4-Chloro-1H-imidazol-5-yl)methyl)piperazin-1-yl)-2,2-dimethyl-2,3-dihydrobenzofuran-5-yl)pyrazolo[1,5-a]pyrimidine-3-carboxamide], the inhibition constant (Ki) is 2.3 nM.

With `O=C(Nc1cc2c(cc1N1CCOCC1)C(=O)N(CC1CCOCC1)C2)c1cnn2cccnc12` [Example 92, N-[6-Morpholino-1-oxo-2-(tetrahydropyran-4-ylmethyl)isoindolin-5-yl]pyrazolo[1,5-a]pyrimidine-3-carboxamide], the inhibitory constant (Ki) came to 3.7 nM.
